From ChEMBL document CHEMBL4330132, “5-Keto-3-cyano-2,4-diaminothiophenes as selective maternal embryonic leucine zipper kinase inhibitors” (Bioorg Med Chem Lett, 2019)

Experiments:
[1] = molecular target: Aurora kinase B (Homo sapiens) (UniProt Q96GD4); test: Binding affinity to wild-type human partial length AURKB (D25 to A303 residues) expressed in mammalian expression system assessed as residual binding level at 1 uM by Kinomescan method relative to control
[2] = molecular target: Serine/threonine-protein kinase BRSK1 (Homo sapiens) (UniProt Q8TDC3); test: Binding affinity to wild-type human partial length BRSK1 (M1 to E754 residues) expressed in bacterial expression system assessed as residual binding level at 1 uM by Kinomescan method relative to control
[3] = molecular target: Cyclin-dependent kinase 3 (Homo sapiens) (UniProt Q00526); test: Binding affinity to wild-type human full length CDK3 (M1 to H305 residues) expressed in bacterial expression system assessed as residual binding level at 1 uM by Kinomescan method relative to control
[4] = molecular target: CDK4/Cyclin D3 (Homo sapiens) (UniProt P11802+P30281); test: Binding affinity to wild-type human full length CDK4/cyclinD3 (M1 to E303 residues) expressed in mammalian expression system assessed as residual binding level at 1 uM by Kinomescan method relative to control
[5] = molecular target: Dual specificity tyrosine-phosphorylation-regulated kinase 1A (Homo sapiens) (UniProt Q13627); test: Binding affinity to wild-type human partial length DYRK1A (H129 to S509 residues) expressed in mammalian expression system assessed as residual binding level at 1 uM by Kinomescan method relative to control
[6] = tested on: Epidermal growth factor receptor (Homo sapiens), P00533 [G719S]; test: Binding affinity to human partial length EGFR G719S mutant (R669 to V1011 residues) expressed in bacterial expression system assessed as residual binding level at 1 uM by Kinomescan method relative to control
[7] = molecular target: Ephrin type-A receptor 3 (Homo sapiens) (UniProt P29320); test: Binding affinity to wild-type human partial length EPHA3 (D604 to K889 residues) expressed in bacterial expression system assessed as residual binding level at 1 uM by Kinomescan method relative to control
[8] = molecular target: Ephrin type-A receptor 6 (Homo sapiens) (UniProt Q9UF33); test: Binding affinity to wild-type human partial length EPHA6 (Y700 to E1046 residues) expressed in bacterial expression system assessed as residual binding level at 1 uM by Kinomescan method relative to control
[9] = molecular target: Vascular endothelial growth factor receptor 3 (Homo sapiens) (UniProt P35916); test: Binding affinity to wild-type human partial length FLT4 (E821 to E1196 residues) expressed in bacterial expression system assessed as residual binding level at 1 uM by Kinomescan method relative to control
[10] = tested on: eIF-2-alpha kinase GCN2 (Homo sapiens), Q9P2K8 [S808G]; test: Binding affinity to wild-type human partial length GCN2 kinase domain 2 (R585 to T1018 residues) S808G mutant expressed in bacterial expression system assessed as residual binding level at 1 uM by Kinomescan method relative to control
[11] = molecular target: Homeodomain-interacting protein kinase 4 (Homo sapiens) (UniProt Q8NE63); test: Binding affinity to wild-type human partial length HIPK4 (M1 to V384 residues) expressed in bacterial expression system assessed as residual binding level at 1 uM by Kinomescan method relative to control
[12] = molecular target: Serine/threonine-protein kinase MRCK beta (Homo sapiens) (UniProt Q9Y5S2); test: Binding affinity to wild-type human partial length MRCKB (L56 to S417 residues) expressed in bacterial expression system assessed as residual binding level at 1 uM by Kinomescan method relative to control
[13] = molecular target: Serine/threonine-protein kinase OSR1 (Homo sapiens) (UniProt O95747); test: Binding affinity to wild-type human full length OSR1 (M1 to S527 residues) expressed in mammalian expression system assessed as residual binding level at 1 uM by Kinomescan method relative to control
[14] = molecular target: Phosphorylase b kinase gamma catalytic chain, skeletal muscle/heart isoform (Homo sapiens) (UniProt Q16816); test: Binding affinity to wild-type human full length PHKG1 (M1 to Y387 residues) expressed in bacterial expression system assessed as residual binding level at 1 uM by Kinomescan method relative to control
[15] = molecular target: Serine/threonine-protein kinase pim-3 (Homo sapiens) (UniProt Q86V86); test: Binding affinity to wild-type human partial length PIM3 (G16 to A317 residues) expressed in bacterial expression system assessed as residual binding level at 1 uM by Kinomescan method relative to control
[16] = molecular target: Serine/threonine-protein kinase SIK3 (Homo sapiens) (UniProt Q9Y2K2); test: Binding affinity to wild-type human partial length QSK (A90 to L395 residues) expressed in mammalian expression system assessed as residual binding level at 1 uM by Kinomescan method relative to control
[17] = molecular target: Serine/threonine-protein kinase RIO3 (Homo sapiens) (UniProt O14730); test: Binding affinity to wild-type human full length RIOK3 (M1 to E519 residues) expressed in bacterial expression system assessed as residual binding level at 1 uM by Kinomescan method relative to control
[18] = molecular target: Proto-oncogene tyrosine-protein kinase ROS (Homo sapiens) (UniProt P08922); test: Binding affinity to wild-type human partial length ROS1 (A1921 to N2240 residues) expressed in bacterial expression system assessed as residual binding level at 1 uM by Kinomescan method relative to control
[19] = molecular target: Uncharacterized serine/threonine-protein kinase SBK3 (Homo sapiens) (UniProt P0C264); test: Binding affinity to wild-type human partial length SgK110 (L22 to R329 residues) expressed in bacterial expression system assessed as residual binding level at 1 uM by Kinomescan method relative to control
[20] = molecular target: Serine/threonine-protein kinase 33 (Homo sapiens) (UniProt Q9BYT3); test: Binding affinity to wild-type human full length STK33 (M1 to L514 residues) expressed in bacterial expression system assessed as residual binding level at 1 uM by Kinomescan method relative to control
[21] = molecular target: Non-receptor tyrosine-protein kinase TYK2 (Homo sapiens) (UniProt P29597); test: Binding affinity to wild-type human partial length TYK2 JH2 pseudokinase domain (G556 to D888 residues) expressed in mammalian expression system assessed as residual binding level at 1 uM by Kinomescan method relative to control
[22] = molecular target: Serine/threonine-protein kinase 32B (Homo sapiens) (UniProt Q9NY57); test: Binding affinity to wild-type human full length YANK2 (M1 to S414 residues) expressed in bacterial expression system assessed as residual binding level at 1 uM by Kinomescan method relative to control
[23] = molecular target: Serine/threonine-protein kinase 32C (Homo sapiens) (UniProt Q86UX6); test: Binding affinity to wild-type human partial length YANK3 (M68 to G486 residues) expressed in bacterial expression system assessed as residual binding level at 1 uM by Kinomescan method relative to control
[24] = molecular target: Mitogen-activated protein kinase kinase kinase 12 (Homo sapiens) (UniProt Q12852); test: Binding affinity to wild-type human full length DLK (M1 to P859 residues) expressed in mammalian expression system assessed as residual binding level at 1 uM by Kinomescan method relative to control

Sequence of Phosphorylase b kinase gamma catalytic chain, skeletal muscle/heart isoform (Homo sapiens) (Q16816 whole entry, looked up, the tested form may be a part, canonical isoform): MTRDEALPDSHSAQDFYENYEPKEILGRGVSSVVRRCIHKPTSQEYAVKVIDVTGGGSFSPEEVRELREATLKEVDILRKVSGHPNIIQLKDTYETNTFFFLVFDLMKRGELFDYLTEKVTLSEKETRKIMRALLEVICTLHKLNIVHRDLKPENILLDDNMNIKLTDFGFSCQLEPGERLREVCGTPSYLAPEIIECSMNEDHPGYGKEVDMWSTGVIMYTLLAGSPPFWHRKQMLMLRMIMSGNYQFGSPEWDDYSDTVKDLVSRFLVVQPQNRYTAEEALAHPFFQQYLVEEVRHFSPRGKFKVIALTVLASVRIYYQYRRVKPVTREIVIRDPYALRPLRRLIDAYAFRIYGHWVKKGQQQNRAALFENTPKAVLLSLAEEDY
Sequence of Proto-oncogene tyrosine-protein kinase ROS (Homo sapiens) (P08922 whole entry, the tested form may be a part): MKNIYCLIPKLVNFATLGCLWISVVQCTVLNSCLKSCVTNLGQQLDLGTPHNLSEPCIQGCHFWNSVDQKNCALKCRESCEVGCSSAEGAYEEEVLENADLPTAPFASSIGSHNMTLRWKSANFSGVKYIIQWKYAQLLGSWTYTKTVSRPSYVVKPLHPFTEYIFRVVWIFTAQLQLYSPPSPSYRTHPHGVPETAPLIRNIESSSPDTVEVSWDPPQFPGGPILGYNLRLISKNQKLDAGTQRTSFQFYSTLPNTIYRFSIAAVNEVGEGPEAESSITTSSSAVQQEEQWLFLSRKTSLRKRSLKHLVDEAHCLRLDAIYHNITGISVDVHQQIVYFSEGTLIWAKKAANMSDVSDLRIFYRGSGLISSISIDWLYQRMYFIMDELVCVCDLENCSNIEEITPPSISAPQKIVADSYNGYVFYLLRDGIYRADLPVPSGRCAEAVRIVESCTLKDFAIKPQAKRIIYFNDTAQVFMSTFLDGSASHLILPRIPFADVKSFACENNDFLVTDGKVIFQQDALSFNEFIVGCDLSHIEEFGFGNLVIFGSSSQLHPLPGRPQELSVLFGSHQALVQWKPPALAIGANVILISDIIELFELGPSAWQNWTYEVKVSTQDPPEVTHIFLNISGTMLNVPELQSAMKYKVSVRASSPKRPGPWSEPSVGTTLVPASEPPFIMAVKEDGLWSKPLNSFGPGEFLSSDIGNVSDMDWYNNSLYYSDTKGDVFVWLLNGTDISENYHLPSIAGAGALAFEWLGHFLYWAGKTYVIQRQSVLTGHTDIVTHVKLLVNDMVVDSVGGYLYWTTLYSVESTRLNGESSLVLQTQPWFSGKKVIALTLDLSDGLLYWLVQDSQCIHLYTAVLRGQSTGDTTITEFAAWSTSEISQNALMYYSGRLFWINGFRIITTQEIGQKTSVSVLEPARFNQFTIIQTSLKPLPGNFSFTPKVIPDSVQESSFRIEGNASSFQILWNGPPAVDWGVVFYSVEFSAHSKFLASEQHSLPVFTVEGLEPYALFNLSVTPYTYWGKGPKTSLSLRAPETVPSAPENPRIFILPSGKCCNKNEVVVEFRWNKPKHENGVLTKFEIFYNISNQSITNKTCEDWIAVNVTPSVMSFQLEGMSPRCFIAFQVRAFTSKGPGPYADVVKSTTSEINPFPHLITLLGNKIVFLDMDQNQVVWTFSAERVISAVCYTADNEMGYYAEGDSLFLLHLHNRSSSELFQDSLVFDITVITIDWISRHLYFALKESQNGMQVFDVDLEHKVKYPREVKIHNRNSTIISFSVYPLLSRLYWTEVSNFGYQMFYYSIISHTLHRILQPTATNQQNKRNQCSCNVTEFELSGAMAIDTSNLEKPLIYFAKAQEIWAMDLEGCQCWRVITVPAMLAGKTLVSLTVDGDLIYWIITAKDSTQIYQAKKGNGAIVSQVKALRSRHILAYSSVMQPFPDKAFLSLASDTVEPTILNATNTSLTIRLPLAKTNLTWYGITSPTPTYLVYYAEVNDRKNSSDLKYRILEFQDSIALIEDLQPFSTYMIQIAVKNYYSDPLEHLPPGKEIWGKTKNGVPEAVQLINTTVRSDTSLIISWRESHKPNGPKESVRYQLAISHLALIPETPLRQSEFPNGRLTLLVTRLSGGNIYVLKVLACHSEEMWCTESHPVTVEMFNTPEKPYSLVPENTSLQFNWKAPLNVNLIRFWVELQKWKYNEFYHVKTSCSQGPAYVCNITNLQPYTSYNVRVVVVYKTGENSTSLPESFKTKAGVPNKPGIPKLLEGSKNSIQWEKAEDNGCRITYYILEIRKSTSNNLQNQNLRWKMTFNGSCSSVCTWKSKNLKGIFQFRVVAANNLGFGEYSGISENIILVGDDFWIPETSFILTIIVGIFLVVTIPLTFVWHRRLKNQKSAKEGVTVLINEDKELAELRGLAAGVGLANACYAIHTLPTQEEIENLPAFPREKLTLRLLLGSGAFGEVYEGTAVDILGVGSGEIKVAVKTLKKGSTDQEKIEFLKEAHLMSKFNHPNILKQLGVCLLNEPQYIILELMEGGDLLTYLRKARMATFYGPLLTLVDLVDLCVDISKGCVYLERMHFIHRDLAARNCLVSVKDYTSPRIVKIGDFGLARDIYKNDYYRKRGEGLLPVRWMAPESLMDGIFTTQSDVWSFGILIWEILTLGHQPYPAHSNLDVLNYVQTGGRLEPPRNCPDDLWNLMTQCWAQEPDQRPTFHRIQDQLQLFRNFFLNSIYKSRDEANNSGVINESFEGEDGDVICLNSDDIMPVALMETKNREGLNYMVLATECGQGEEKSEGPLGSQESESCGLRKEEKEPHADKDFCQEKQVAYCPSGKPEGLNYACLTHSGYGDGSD
Sequence of Ephrin type-A receptor 6 (Homo sapiens) (Q9UF33 whole entry, the tested form may be a part): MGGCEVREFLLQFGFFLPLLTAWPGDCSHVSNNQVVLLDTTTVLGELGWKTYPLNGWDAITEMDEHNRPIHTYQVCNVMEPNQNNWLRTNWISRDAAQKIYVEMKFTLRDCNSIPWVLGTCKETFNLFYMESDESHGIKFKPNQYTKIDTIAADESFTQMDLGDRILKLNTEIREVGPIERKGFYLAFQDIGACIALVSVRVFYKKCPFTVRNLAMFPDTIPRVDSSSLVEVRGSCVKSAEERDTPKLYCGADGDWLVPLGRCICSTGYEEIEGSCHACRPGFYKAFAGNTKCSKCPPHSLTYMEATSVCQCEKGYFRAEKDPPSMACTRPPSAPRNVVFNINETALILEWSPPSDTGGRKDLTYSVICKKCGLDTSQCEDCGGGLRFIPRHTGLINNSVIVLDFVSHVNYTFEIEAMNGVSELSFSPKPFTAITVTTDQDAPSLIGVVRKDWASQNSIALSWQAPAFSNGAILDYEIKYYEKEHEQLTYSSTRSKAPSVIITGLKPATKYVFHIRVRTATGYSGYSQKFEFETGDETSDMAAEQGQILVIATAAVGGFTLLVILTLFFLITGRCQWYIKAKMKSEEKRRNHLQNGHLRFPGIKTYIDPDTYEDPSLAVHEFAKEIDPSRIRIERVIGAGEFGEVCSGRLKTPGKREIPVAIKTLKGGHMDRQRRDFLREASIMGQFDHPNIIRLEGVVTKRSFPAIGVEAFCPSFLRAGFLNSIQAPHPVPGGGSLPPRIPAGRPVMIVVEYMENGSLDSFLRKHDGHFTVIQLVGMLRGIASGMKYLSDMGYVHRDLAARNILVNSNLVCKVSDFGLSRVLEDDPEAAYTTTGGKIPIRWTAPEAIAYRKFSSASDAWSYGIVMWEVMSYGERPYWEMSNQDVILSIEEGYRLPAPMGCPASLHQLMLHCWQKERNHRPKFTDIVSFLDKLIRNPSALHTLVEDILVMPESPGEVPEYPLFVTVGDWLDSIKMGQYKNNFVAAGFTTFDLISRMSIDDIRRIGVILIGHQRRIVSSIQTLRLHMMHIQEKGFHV
Sequence of Serine/threonine-protein kinase BRSK1 (Homo sapiens) (Q8TDC3 whole entry, the tested form may be a part): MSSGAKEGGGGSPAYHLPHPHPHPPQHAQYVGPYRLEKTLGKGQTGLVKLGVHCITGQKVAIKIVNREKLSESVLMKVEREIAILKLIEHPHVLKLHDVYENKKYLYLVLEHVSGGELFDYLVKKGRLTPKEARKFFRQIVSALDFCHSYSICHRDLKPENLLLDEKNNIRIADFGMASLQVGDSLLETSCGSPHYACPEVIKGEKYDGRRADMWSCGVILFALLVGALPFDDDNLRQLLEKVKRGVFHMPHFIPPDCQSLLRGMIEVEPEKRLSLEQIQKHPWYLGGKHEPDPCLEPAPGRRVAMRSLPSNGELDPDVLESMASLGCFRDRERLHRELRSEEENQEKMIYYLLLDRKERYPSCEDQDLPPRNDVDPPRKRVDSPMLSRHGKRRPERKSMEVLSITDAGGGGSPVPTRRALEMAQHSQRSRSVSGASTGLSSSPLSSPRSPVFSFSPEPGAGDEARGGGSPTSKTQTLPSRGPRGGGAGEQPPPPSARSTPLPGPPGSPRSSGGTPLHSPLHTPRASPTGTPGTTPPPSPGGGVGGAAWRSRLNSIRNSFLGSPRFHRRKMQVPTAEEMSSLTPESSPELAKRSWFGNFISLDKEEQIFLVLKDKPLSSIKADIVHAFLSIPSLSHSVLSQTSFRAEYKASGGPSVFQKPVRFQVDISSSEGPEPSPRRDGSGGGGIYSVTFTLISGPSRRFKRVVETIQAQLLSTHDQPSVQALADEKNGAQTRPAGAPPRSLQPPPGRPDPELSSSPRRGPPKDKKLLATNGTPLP
Sequence of Serine/threonine-protein kinase 32C (Homo sapiens) (Q86UX6 whole entry, the tested form may be a part): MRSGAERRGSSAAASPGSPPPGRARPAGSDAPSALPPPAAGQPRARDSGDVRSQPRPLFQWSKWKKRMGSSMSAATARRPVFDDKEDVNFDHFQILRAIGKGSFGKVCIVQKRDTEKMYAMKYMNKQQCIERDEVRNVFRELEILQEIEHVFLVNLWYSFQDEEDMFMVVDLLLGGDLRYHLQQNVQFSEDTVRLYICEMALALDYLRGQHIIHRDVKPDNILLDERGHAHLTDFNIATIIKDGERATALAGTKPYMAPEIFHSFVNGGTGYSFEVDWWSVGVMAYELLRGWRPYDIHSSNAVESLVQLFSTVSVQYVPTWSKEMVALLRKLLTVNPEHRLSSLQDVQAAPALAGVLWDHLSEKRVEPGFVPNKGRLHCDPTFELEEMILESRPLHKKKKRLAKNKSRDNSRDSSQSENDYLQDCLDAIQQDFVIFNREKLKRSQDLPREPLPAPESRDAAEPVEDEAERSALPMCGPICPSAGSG

Work on `CC(C)Nc1sc(C(=O)c2ccc(Cl)s2)c(N)c1C#N` yielded an Activity [1] of 100%, an Activity [2] of 92% and an Activity [3] of 89%. It also gave an Activity [4] of 100%, an Activity [5] of 100% and an Activity [6] of 96%. The Activity [7] was 72%, the Activity [8] was 86% and the Activity [9] was 50%. For the same molecule, the Activity [10] was 45%, the Activity [11] was 80% and the Activity [12] was 90%. The Activity [13] was 83%, the Activity [14] was 89% and the Activity [15] was 86%. For the same molecule, the Activity [16] was 100%, the Activity [17] was 38% and the Activity [18] was 82%. It also gave an Activity [19] of 100%, an Activity [20] of 57% and an Activity [21] of 100%. It also gave an Activity [22] of 100%, an Activity [23] of 82% and an Activity [24] of 99%.
